Earlier results as cited in patent publication US20080138404A1, “EXTENDED RELEASE FORMULATIONS OF CARVEDILOL” (BIOVAIL LABORATORIES INTERNATIONAL S.R.L., priority 2006, published 2008).
One block for each compound: values may come before it.

Experiments:
[1] = tested on: plasma protein, primarily albumin; conditions: following oral administration in healthy subjects
[2] = not given; remark: listed apart in the source
[3] = man

Compound: COc1ccccc1OCCNCC(O)COc1cccc2[nH]c3ccccc3c12 (racemic) [Carvedilol]
- bound to plasma protein [1]: more than 98%
- solubility (above a pH of 9.0): < 1 µg/mL
- saturation solubility (pH 7, room temperature): about 23 μg/ml
- immediate release dose recovered as unchanged drug in urine ([2]; in vivo): less than 2%
- terminal (elimination) half-life ([2]; oral, immediate release): 7 to 10 h
- colonic absorption relative to oral administration ([3]; 25 mg carvedilol gelatin suspension): about 7%
- relative absorption in the ileum in comparison with oral administration [3]: 28%
- relative absorption in the jejunum in comparison with oral administration [3]: 56%

- higher plasma concentration in poor metabolisers compared to extensive metabolisers ([2]; in vivo): 2-3 fold
- plasma levels of R(+) relative to S(−) ([2]; in vivo, po): 2-3 times
Compound: COc1ccccc1OCCNC[C@@H](O)COc1cccc2[nH]c3ccccc3c12 [R(+) Carvedilol]

- increase of plasma levels in poor metabolisers ([2]; in vivo): 20-25%
Compound: COc1ccccc1OCCNC[C@H](O)COc1cccc2[nH]c3ccccc3c12 [S(−) Carvedilol]
